# Patent publication US8466129B2, “Method of preventing and treating airway remodeling and pulmonary inflammation using A2B adenosine receptor antagonists” (Gilead Sciences, Inc., priority 2004, dated 2013)
# “Also recorded” adds a separate entry of the source.
# Legend:
# [1] = tested on: ADA-deficient (ADA−/−) mice; assay: Whole lung transcript levels by quantitative real-time RT-PCR in ADA-deficient mice; type: in vivo, mouse; settings: 1 mg/kg ip twice daily for 17 days, vs vehicle-treated ADA−/− mice
# Description: (§1) Mice treated by intraperitoneal (ip) injection twice daily with 1 mg/kg 3-ethyl-1-propyl -8-{1-[(3-trifluoromethylphenyl)methyl]pyrazol-4-yl}1,3,7-trihydropurine-2,6-dione. The specific protocol is as follows: ADA-deficient (ADA−/−) or ADA containing (ADA+) mice were identified at birth by screening of ADA enzymatic activity in the blood. ADA−/− mice were maintained on ADA enzyme therapy from postnatal day 2 until postnatal day 21. At this stage, treatments with 3-ethyl-1-propyl-8-{1-[(3-trifluoromethylphenyl)methyl] pyrazol -4-yl}-1,3,7-trihydropurine-2,6-dione or vehicle controls (corn oil/ethanol/DMSO) were initiated. Treatments consisted of an ip injection in the morning (8-9 AM) and in the evening (5-6 pm). Treatments were given daily for 17 days, and the experiment was terminated on postnatal day 38. Treatment groups included ADA−/− or ADA+mice receiving 3-ethyl-1-propyl-8-{1-[(3-trifluoromethylphenyl)methyl]pyrazol-4-yl}-1,3,7-trihydropurine-2,6-dione, vehicle, or no treatment. All mice were littermates and were therefore strain matched. Both males and females were included in these experiments. At the termination of the experiment, serum was collected for pharmacokinetics (PK) analysis of 3-ethyl-1-propyl -8-{1-[(3-trifluoromethylphenyl)methyl]pyrazol-4-yl}-1,3,7-trihydropurine -2,6-dione levels and various pulmonary endpoints were examined.
# Mice were anesthetized and the lungs were rapidly removed and frozen in liquid nitrogen. RNA was isolated from frozen lung tissue using TRIzol Reagent (Life Technologies Inc., Grand Island, N.Y., USA). RNA samples were then DNase treated and subjected to quantitative real-time RT-PCR. The primers, probes and procedures for real-time RT-PCR were described previously in Sun et al. (2005) J Clin Invest 115:35-43. Reactions were carried out on a Smart Cycler rapid thermal cycler system (Cepheid, Sunnyvale, Calif.). Specific transcript levels were determined using Smart Cycler analysis software through comparison to a standard curve generated from the PCR amplification of template dilutions.
# [2] = tested on: ADA-deficient (ADA−/−) mice; assay: α-smooth muscle actin immunostaining of lung myofibroblasts in ADA-deficient mice; type: in vivo, mouse; settings: 1 mg/kg ip twice daily for 17 days
# Description: as §1, with “examined. […]” for “examined.”
# [3] = tested on: ADA-deficient (ADA−/−) mice; assay: Alveolar airspace size (histology, mean chord length) in ADA-deficient mice; type: in vivo, mouse; settings: 1 mg/kg ip twice daily for 17 days
# Description: Mice treated by intraperitoneal (ip) injection twice daily with 1 mg/kg 3-ethyl-1-propyl -8-{1-[(3-trifluoromethylphenyl)methyl]pyrazol-4-yl}1,3,7-trihydropurine-2,6-dione. The specific protocol is as follows: ADA-deficient (ADA−/−) or ADA containing (ADA+) mice were identified at birth by screening of ADA enzymatic activity in the blood. ADA−/− mice were maintained on ADA enzyme therapy from postnatal day 2 until postnatal day 21. At this stage, treatments with 3-ethyl-1-propyl-8-{1-[(3-trifluoromethylphenyl)methyl] pyrazol -4-yl}-1,3,7-trihydropurine-2,6-dione or vehicle controls (corn oil/ethanol/DMSO) were initiated. […]
# Mice were anesthetized with avertin, and lungs were lavaged four times with 0.3 ml PBS, and 0.95-1 ml of pooled lavage fluid was recovered. Total cell counts were determined using a hemocytometer, and aliquots were cytospun onto microscope slides and stained with Diff-Quick (Dade Nehring) for cellular differentials. […]
# The size of alveolar airways was determined in pressure infused lungs by measuring mean chord lengths on H&E-stained lung sections (Blackburn et al. (2000) J Exp Med 192:159-170). […] This line grid was subtracted from the lung images using Image-Pro® Plus (Media Cybernetics) image analysis software, and the resultant lines were measured and averaged to give the mean chord length of the alveolar airways. […]
# [4] = tested on: ADA-deficient (ADA−/−) mice; assay: Collagen deposition (Masson's trichrome) and soluble collagen (Sircol assay) in ADA-deficient mice; type: in vivo, mouse; settings: 1 mg/kg ip twice daily for 17 days
# Description: as §1
# Mice were anesthetized with avertin, and lungs were lavaged four times with 0.3 ml PBS, and 0.95-1 ml of pooled lavage fluid was recovered. Total cell counts were determined using a hemocytometer, and aliquots were cytospun onto microscope slides and stained with Diff-Quick (Dade Nehring) for cellular differentials. Lungs were then infused with 4% paraformaldehyde in PBS at 25 cm of pressure and then fixed overnight at 4° C. Fixed lung samples were rinsed in PBS, dehydrated, and embedded in paraffin. Sections (5 μm) were collected on microscope slides and stained with hematoxylin and eosin (H&E; Shandon-Lipshaw) or Masson's trichrome (EM Science), according to manufacturer's instructions. […]
# [5] = tested on: ADA-deficient (ADA−/−) mice; assay: General health and lung histology (H&E) in the ADA-deficient mouse model of adenosine-dependent pulmonary injury; type: in vivo; settings: 1 mg/kg ip twice daily for 17 days
# Excerpt: The model system being used is the adenosine deaminase (ADA)-deficient mouse model of adenosine-dependent pulmonary injury. In this model, elevations in adenosine are associated with increased pulmonary inflammation and airway remodeling. Many of the features seen in these mice resemble those observed in patients with various forms of chronic lung disease including severe asthma, COPD and pulmonary fibrosis. The approach is to treat these mice with the A2B AR antagonist 3-ethyl-1-propyl-8-{1-[(3-trifluoromethylphenyl)methyl]pyrazol -4-yl}-1,3,7-trihydropurine-2,6-dione as a means to probe A2BAR contributions to pulmonary inflammation and injury in ADA-deficient mice, which should provide insight into the efficacy of this drug for the treatment of chronic lung diseases.
# as §1
# ADA-deficient mice were generated and genotyped as described (Blackburn et al. (1998) J Biol Chem 273:5093-5100 and Young et al. (2004) J. Immunol. 173:1380-1389. Mice homozygous for the null Ada allele were designated ADA-deficient (ADA^−/−), while mice heterozygous for the null Ada allele were designated as ADA control mice (ADA^+). All mice were on a mixed 129sv/C57BL/6J background and all phenotypic comparisons were performed amongst littermates. Animal care was in accordance with institutional and NIH guidelines. Mice were housed in ventilated cages equipped with microisolator lids and maintained under strict containment protocols. No evidence of bacterial, parasitic, or fungal infection was found, and serologies on cage littermates were negative for 12 of the most common murine viruses.
# (§2) Mice were anesthetized with avertin, and lungs were lavaged four times with 0.3 ml PBS, and 0.95-1 ml of pooled lavage fluid was recovered. Total cell counts were determined using a hemocytometer, and aliquots were cytospun onto microscope slides and stained with Diff-Quick (Dade Nehring) for cellular differentials. Lungs were then infused with 4% paraformaldehyde in PBS at 25 cm of pressure and then fixed overnight at 4° C. Fixed lung samples were rinsed in PBS, dehydrated, and embedded in paraffin. Sections (5 μm) were collected on microscope slides and stained with hematoxylin and eosin (H&E; Shandon-Lipshaw) or Masson's trichrome (EM Science), according to manufacturer's instructions.
# [6] = tested on: ADA-deficient (ADA−/−) mice; assay: Bronchiolalveolar lavage (BAL) cell counts and cellular differentials in ADA-deficient mice; type: in vivo, mouse; settings: 1 mg/kg ip twice daily for 17 days
# Description: as §1, §2
# [7] = listed as adenosine A2B receptor antagonist, 1 mg/kg
# [8] = ADA−/− mice, vs vehicle-treated ADA−/− mice
smiles,measurement,setting,value
"CCCn1c(=O)c2[nH]c(-c3cnn(Cc4cccc(C(F)(F)F)c4)c3)nc2n(CC)c1=O [3-ethyl-1-propyl-8-(1-{[3-(trifluoromethyl)phenyl]methyl}pyrazol-4-yl)-1,3,7-trihydropurine-2,6-dione]","Eotaxin I level, whole lung RNA",[1],significantly lower
same,"IL-4 level, whole lung RNA",[1],did not change
same,"IL-5 level, whole lung RNA",[1],did not change
same,"IL-6 level, whole lung RNA",[1],significantly lower
same,"MMP-9 expression, whole lung RNA",[1],diminished
same,"MMP-12 expression, whole lung RNA",[1],diminished
same,"RANTES level, whole lung RNA",[1],did not change
same,"TARC level, whole lung RNA",[1],significantly lower
same,"TIMP-1 expression, whole lung RNA",[1],diminished
same,"TNFα level, whole lung RNA",[1],did not change
same,increase in collagen production: whole lung α1-procollagen transcript levels,[1],largely prevented
same,"monocyte chemoattractant proteins (MCPs) level, whole lung RNA",[1],did not change
same,"TGF-β1 expression (transcripts), whole lung",[1]; [7],lower levels; also recorded: decreased
same,"osteopontin (OPN) expression (transcripts), whole lung",[1]; [7],lower levels; also recorded: decreased
same,"plasminogen activator inhibitor-1 (PAI-1) expression (transcripts), whole lung",[1]; [7],lower levels; also recorded: decreased
same,α-sma positive cells in the distal airways (myofibroblast accumulation),[2],Few to no
same,distal airway enlargement (histology),[3],prevented
same,distal airway size (mean cord length),[3],agreed with the histological observations
same,collagen deposition in the lungs (Masson's trichrome),[4]; ADA+ control mice,little to no
same,collagen deposition in the airways (Masson's trichrome),[4]; ADA−/− mice,reduction
same,increase in collagen production: collagen protein levels in BAL fluid,[4]; [8],largely prevented
same,alveolar airway simplification (H&E histology),[5]; ADA+ control mice,not evident
same,pulmonary inflammation (H&E histology),[5]; ADA+ control mice,not evident
same,pulmonary inflammation and airway destruction,[5]; ADA−/− mice,significant reduction
same,alveolar airway simplification (H&E histology),[5]; [8],significant decrease
same,pulmonary inflammation (H&E histology),[5]; [8],significant decrease
same,outward signs of severe respiratory distress (rapid breathing and hunched posture),"[5]; ADA−/− mice, seen in vehicle-treated or untreated ADA−/− mice",not observed
same,airway inflammation,[6],significant decrease
same,alveolar macrophage activation (BAL cells),[6],reduction
same,alveolar macrophages in BAL,[6],reduction
same,eosinophils in BAL,[6],reduction
same,lymphocytes in BAL,[6],reduction
same,neutrophils in BAL,[6],reduction
same,number of total cells recovered from BAL,[6]; vs vehicle-treated ADA−/− mice,significant reduction
